In patent US20250230138A1, “COMPOUNDS HAVING A T-STRUCTURE FORMED BY AT LEAST FOUR CYCLES FOR USE IN THE TREATMENT OF CANCER AND OTHER INDICATIONS” (TheRas, Inc., priority 2022, published 2025):
Where two headings read alike, the source gives them in different places.

Columns and labels:
[1] = target: Cys242 in human PIK3CA (157-299) (Homo sapiens (Human), UniProt P42336); assay: Covalent modification assay using MALDI-TOF MS; format: biochemical; settings: 4 h reaction time point; 3.33 μM protein target, 1:7.5 protein to compound ratio (compounds 1-852)
In short: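 Covalent adduct formation was read by linear-mode MALDI-TOF with sinapinic acid matrix, reported as modified-protein peak height divided by total protein peak heights. Reactions held PIK3CA (157-299) at 1 or 3.33 μM in HEPES/NaCl/MgCl2 buffer, pH 7.3, sampled after 15 min to 4 h at room temperature.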

[2] = system: pAKT in BT474 cells; assay: Cell-based pAKT HTRF assay in BT474 cells; settings: BT474 cells, 4 hr incubation, Compounds 10-999, read-out: pAKT inhibition IC50 in BT474 cells
In short: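 pAKT was measured by HTRF after a 4 hr compound exposure in BT474 cells (DMEM, 10% FBS, 0.25% DMSO), using 9 concentrations from 3 μM in 3-fold steps. Cell lysates were incubated with the Eu cryptate/d2 antibody pair at room temperature for 4 to 24 h. The plate was then read at 320 nm excitation and 615 nm emission.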

Sequence of Cys242 in human PIK3CA (157-299) (P42336 157-299): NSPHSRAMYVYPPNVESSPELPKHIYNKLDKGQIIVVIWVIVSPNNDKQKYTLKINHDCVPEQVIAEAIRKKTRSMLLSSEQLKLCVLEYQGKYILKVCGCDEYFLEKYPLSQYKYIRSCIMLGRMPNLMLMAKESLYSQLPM

IC50 ([2]; Homo sapiens, BT-474) | IC50 [2] | Compound | % of modification [1]
< 100 nM |  | C=CC(=O)N1CCn2nc(-c3nc(-c4ccc5c(c4)CCNC5=O)c4ccsc4c3-c3ccc(F)cc3OC(C)C)cc2C1 [Compound 199, 6-[7-(4-fluoro-2-isopropoxy-phenyl)-6-(5-prop-2-enoyl-6,7-dihydro-4H-pyrazolo[1,5-a]pyrazin-2-yl)thieno[3,2-c]pyridin-4-yl]-3,4-dihydro-2H-isoquinolin-1-one] | A (percent of modification of PIK3CA protein ≥75%)
< 100 nM |  | C=CC(=O)N1CCn2nc(-c3nc(-c4cnn(C)c4)c4ccsc4c3-c3ccc(F)cc3OC(C)C)cc2C1 [Compound 200, 1-[2-[7-(4-fluoro-2-isopropoxy-phenyl)-4-(1-methylpyrazol-4-yl)thieno[3,2-c]pyridin-6-yl]-6,7-dihydro-4H-pyrazolo[1,5-a]pyrazin-5-yl]prop-2-en-1-one] | A (percent of modification of PIK3CA protein ≥75%)
 | < 100 nM | C=CC(=O)N1CCn2nc(-c3nc(-c4ccc(=O)n(C)c4)c4ccsc4c3-c3ccc(F)cc3OC(C)C)cc2C1 [Compound 201] | A (percent of modification of PIK3CA protein ≥75%)
 | < 100 nM | C=CC(=O)N1CCn2nc(-c3nc(-c4cncc(C#N)c4)c4ccsc4c3-c3ccc(F)cc3OCCOC)cc2C1 [Compound 202] | A (percent of modification of PIK3CA protein ≥75%)
 | < 100 nM | C=CC(=O)N1CCn2nc(-c3nc(-c4cncc(Cl)c4)c4ccsc4c3-c3ccc(F)cc3OCCOC)cc2C1 [Compound 203] | A (percent of modification of PIK3CA protein ≥75%)
 | 100 to 1000 nM | C=CC(=O)N1CC(n2nc(-c3nc(-c4ccc5c(c4)CCNC5)c4ccsc4c3-c3ccc(F)cc3OCCOC)ccc2=O)C1 [Compound 204] | B (50%<percent of modification <75%)
 | < 100 nM | C=CC(=O)N1CCn2nc(-c3nc(-c4ccc(=O)n(C)c4)c4ccsc4c3-c3ccc(F)cc3OCCOC)nc2C1 [Compound 205] | A (percent of modification of PIK3CA protein ≥75%)
< 100 nM |  | C=CC(=O)N1CCn2nc(-c3nc(-c4cnn(C)c4)c4ccsc4c3-c3ccc(F)cc3OC)cc2C1 [Compound 206, 1-[2-[7-(4-fluoro-2-methoxy-phenyl)-4-(1-methylpyrazol-4-yl)thieno[3,2-c]pyridin-6-yl]-6,7-dihydro-4H-pyrazolo[1,5-a]pyrazin-5-yl]prop-2-en-1-one] | A (percent of modification of PIK3CA protein ≥75%)
 | < 100 nM | C=CC(=O)N1CCn2nc(-c3nc(N4CCC5(CC4)COC5)c4ccsc4c3-c3ccc(F)cc3OC(C)C)cc2C1 [Compound 207] | A (percent of modification of PIK3CA protein ≥75%)
 | < 100 nM | C=CC(=O)N1CCn2nc(-c3nc(N4CCN(C(C)C)CC4)c4ccsc4c3-c3ccc(F)cc3OC(C)C)cc2C1 [Compound 208] | A (percent of modification of PIK3CA protein ≥75%)
 | < 100 nM | C=CC(=O)N1CCn2nc(-c3nc(N4CCN(C(C)C)CC4)c4ccsc4c3-c3ccc(F)cc3OCCOC)cc2C1 [Compound 209] | A (percent of modification of PIK3CA protein ≥75%)
 | < 100 nM | C=CC(=O)N1CC(n2cc(-c3nc(-c4ccc5c(c4)CCNC5)c4ccsc4c3-c3ccc(F)cc3OCCOC)ncc2=O)C1 [Compound 210] | A (percent of modification of PIK3CA protein ≥75%)
 | < 100 nM | C=CC(=O)N1CCn2nc(-c3nc(N4CCC5(CC4)CS(=O)(=O)C5)c4ccsc4c3-c3ccc(F)cc3OC(C)C)cc2C1 [Compound 211] | A (percent of modification of PIK3CA protein ≥75%)
 | < 100 nM | C=CC(=O)N1CCn2nc(-c3nc(-c4cnn(C)c4)c4ccsc4c3-c3ccc(F)cc3OCC3CCNC(=O)C3)cc2C1 (stereo not shown) [Compound 212] | A (percent of modification of PIK3CA protein ≥75%)
 | 100 to 1000 nM | C=CC(=O)N1CC[C@H](n2cc(-c3nc(-c4cnn(C)c4)c4ccsc4c3-c3ccc(F)cc3OCC3CCNC(=O)C3)ccc2=O)C1 (stereo partly shown) [Compound 213] | A (percent of modification of PIK3CA protein ≥75%)
 | 100 to 1000 nM | C=CC(=O)N1CC[C@H](n2cc(-c3nc(-c4ccc5c(c4)CCNC5)c4ccsc4c3-c3ccc(F)cc3OCC3CCNC(=O)C3)ccc2=O)C1 (stereo partly shown) [Compound 214] | A (percent of modification of PIK3CA protein ≥75%)
 | 100 to 1000 nM | C=CC(=O)N1CCc2nc(-c3nc(-c4ccc5c(c4)CCNC5)c4ccsc4c3-c3ccc(F)cc3OC(F)F)sc2C1 [Compound 215] | A (percent of modification of PIK3CA protein ≥75%)
 | 100 to 1000 nM | C=CC(=O)N1CCn2nc(-c3nc(-c4cnn(C)c4)c4ccsc4c3-c3ccc(F)cc3OC(F)F)nc2C1 [Compound 216] | A (percent of modification of PIK3CA protein ≥75%)
 | < 100 nM | C=CC(=O)N1CCn2nc(-c3nc(-c4ccnc(N)c4)c4ccsc4c3-c3ccc(F)cc3OC(F)F)nc2C1 [Compound 217] | A (percent of modification of PIK3CA protein ≥75%)

IC50 ([2]; Homo sapiens, BT-474) | IC50 [2] | Compound | % of modification [1]
 | < 100 nM | C=CC(=O)N1CCn2nc(-c3nc(-c4ccc5c(c4)CCN(C(C)C)C5)c4ccsc4c3-c3ccc(F)cc3OC(F)F)nc2C1 [Compound 218] | A (percent of modification of PIK3CA protein ≥75%)
 | < 100 nM | C=CC(=O)N1CCn2nc(-c3nc(-c4ccc5c(c4)CCNC5=O)c4ccsc4c3-c3ccc(F)cc3OC(C)C)nc2C1 [Compound 219] | A (percent of modification of PIK3CA protein ≥75%)
 | < 100 nM | C=CC(=O)N1CCn2nc(-c3nc(C4CCN(C(C)C)CC4)c4ccsc4c3-c3ccc(F)cc3OCCOC)cc2C1 [Compound 220] | A (percent of modification of PIK3CA protein ≥75%)
 | < 100 nM | C=CC(=O)N1CCc2nc(-c3nc(-c4cnn(C)c4)c4ccsc4c3-c3ccc(F)cc3OCC3CCN(C)C(=O)C3)sc2C1 (stereo not shown) [Compound 221] | A (percent of modification of PIK3CA protein ≥75%)
 | < 100 nM | C=CC(=O)N1CCn2nc(-c3nc(-c4ccc5c(c4)CCNC5)c4ccsc4c3-c3ccc(F)cc3OC(F)F)cc2C1 [Compound 222] | A (percent of modification of PIK3CA protein ≥75%)
 | < 100 nM | C=CC(=O)N1CCn2nc(-c3nc(-c4ccc(=O)n(C)c4)c4ccsc4c3-c3ccc(F)cc3OC(F)F)cc2C1 [Compound 223] | A (percent of modification of PIK3CA protein ≥75%)
 | < 100 nM | C=CC(=O)N1CCn2nc(-c3nc(-c4cnn(C)c4)c4ccsc4c3-c3ccc(F)cc3OC(F)F)cc2C1 [Compound 224] | A (percent of modification of PIK3CA protein ≥75%)
 | < 100 nM | C=CC(=O)N1CCn2nc(-c3nc(-c4cnn(C)c4)c4ccsc4c3-c3ccc(F)cc3OC(C)C)nc2C1 [Compound 225] | A (percent of modification of PIK3CA protein ≥75%)
 | < 100 nM | C=CC(=O)N1CCn2nc(-c3nc(-c4ccnc(N)c4)c4ccsc4c3-c3ccc(F)cc3OC(F)F)cc2C1 [Compound 226] | A (percent of modification of PIK3CA protein ≥75%)
 | < 100 nM | C=CC(=O)N1CCc2nc(-c3nc(-c4cnc5c(c4)CNCC5)c4ccsc4c3-c3ccc(F)cc3OCCOC)sc2C1 [Compound 227] | A (percent of modification of PIK3CA protein ≥75%)
 | 100 to 1000 nM | C=CC(=O)N1CC(n2cc(-c3nc(N4CCn5cnnc5C4)c4ccsc4c3-c3ccc(F)cc3OCCOC)cn2)C1 [Compound 228] | A (percent of modification of PIK3CA protein ≥75%)
 | 100 to 1000 nM | C=CC(=O)N1CCC(n2cc(-c3nc(-c4cnn5c4C(=O)NCC5)c4ccsc4c3-c3ccc(F)cc3OCCOC)cn2)CC1 [Compound 230] | B (50%<percent of modification <75%)
 | < 100 nM | C=CC(=O)N1CC(n2cc(-c3nc(-c4cnn(CC(F)F)c4)c4ccsc4c3-c3ccc(F)cc3OCCOC)cn2)C1 [Compound 232] | A (percent of modification of PIK3CA protein ≥75%)
 | < 100 nM | C=CC(=O)N1CC(n2cc(-c3nc(-c4cnn(CCO)c4)c4ccsc4c3-c3ccc(F)cc3OCCOC)cn2)C1 [Compound 233] | A (percent of modification of PIK3CA protein ≥75%)
 | < 100 nM | C=CC(=O)N1CC(n2cc(-c3nc(-c4ccnc(N)c4)c4ccsc4c3-c3ccc(F)cc3OCCOC)cn2)C1 [Compound 234] | A (percent of modification of PIK3CA protein ≥75%)
 | 100 to 1000 nM | C=CC(=O)N1CC(n2cc(-c3nc(-c4cnn(CF)c4)c4ccsc4c3-c3ccc(F)cc3OCCOC)cn2)C1 [Compound 236] | A (percent of modification of PIK3CA protein ≥75%)
 | 100 to 1000 nM | C=CC(=O)N1CC(n2cc(-c3nc(-c4cnn(CC5CC5(F)F)c4)c4ccsc4c3-c3ccc(F)cc3OCCOC)cn2)C1 (stereo not shown) [Compound 237] | A (percent of modification of PIK3CA protein ≥75%)
 | < 100 nM | C=CC(=O)N1CC(n2cc(-c3nc(-c4ccc(S(N)(=O)=O)cc4)c4ccsc4c3-c3ccc(F)cc3OCCOC)cn2)C1 [Compound 238] | A (percent of modification of PIK3CA protein ≥75%)
 | < 100 nM | C=CC(=O)N1CC(n2cc(-c3nc(-c4cnn(CC(N)=O)c4)c4ccsc4c3-c3ccc(F)cc3OCCOC)cn2)C1 [Compound 239] | A (percent of modification of PIK3CA protein ≥75%)
